The values that follow come from patent US12157746B2, “Tetrahydro-1H-pyrazino[2,1-a]isoindolylquinoline compounds for the treatment of autoimmune disease” (F. HOFFMANN-LA ROCHE AG, priority 2018, dated 2024).

Some results are limits rather than exact numbers.

The target in the test is T1, human TLR8 (Homo sapiens, UniProt Q9NR97).
T1 sequence (Q9NR97 27-1041): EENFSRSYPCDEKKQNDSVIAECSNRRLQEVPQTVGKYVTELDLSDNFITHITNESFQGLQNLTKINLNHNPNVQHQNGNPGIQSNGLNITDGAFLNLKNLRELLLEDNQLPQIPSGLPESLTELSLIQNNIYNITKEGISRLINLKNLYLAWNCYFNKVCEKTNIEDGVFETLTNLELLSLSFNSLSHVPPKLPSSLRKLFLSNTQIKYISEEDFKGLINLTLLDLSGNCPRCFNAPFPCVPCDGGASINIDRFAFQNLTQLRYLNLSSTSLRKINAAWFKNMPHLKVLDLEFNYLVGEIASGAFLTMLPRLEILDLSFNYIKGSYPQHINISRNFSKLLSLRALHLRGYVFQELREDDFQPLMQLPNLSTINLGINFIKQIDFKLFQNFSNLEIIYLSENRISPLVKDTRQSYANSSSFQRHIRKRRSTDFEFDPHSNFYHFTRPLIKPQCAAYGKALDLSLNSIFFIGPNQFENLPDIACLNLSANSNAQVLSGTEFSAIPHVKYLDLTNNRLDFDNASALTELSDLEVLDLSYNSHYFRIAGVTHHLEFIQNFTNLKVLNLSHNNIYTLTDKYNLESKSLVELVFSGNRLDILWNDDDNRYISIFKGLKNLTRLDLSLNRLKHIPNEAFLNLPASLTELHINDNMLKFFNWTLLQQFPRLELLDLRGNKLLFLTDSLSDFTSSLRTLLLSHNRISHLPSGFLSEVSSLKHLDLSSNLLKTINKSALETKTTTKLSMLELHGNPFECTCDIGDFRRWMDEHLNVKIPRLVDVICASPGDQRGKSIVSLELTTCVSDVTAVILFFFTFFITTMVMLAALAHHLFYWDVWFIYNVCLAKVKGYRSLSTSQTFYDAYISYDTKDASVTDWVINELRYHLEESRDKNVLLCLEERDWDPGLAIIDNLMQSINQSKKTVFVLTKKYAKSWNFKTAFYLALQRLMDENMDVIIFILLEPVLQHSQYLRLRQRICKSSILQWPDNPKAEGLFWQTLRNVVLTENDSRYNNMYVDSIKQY
The experiment in a line: HEK293-Blue-hTLR-8 cells assay. The class given is cell-based. Conditions: HEK293-Blue-hTLR8 cells, R848 stimulation, 20 hrs, SEAP reporter; read-out: HEK/hTLR8 IC50. A digest of the protocol: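 Antagonism read out in HEK293-Blue-hTLR8 cells carrying an NF-κB/AP-1-driven SEAP reporter, stimulated with R848 (10 μL of 60 uM stock added) alongside serially diluted compound (1% DMSO), 20 h at 37° C. Supernatant SEAP measured with QUANTI-Blue after 2 h at 37° C, absorbance at 620-655 nm.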
For `C[C@@H]1CN(c2ccc(C#N)c3ncccc23)C[C@@H]2c3ccc(NC[C@H]4CNCCO4)cc3CN12` [Example 59, 5-[(4R,10bS)-4-methyl-8-[[(2R)-morpholin-2-yl]methylamino]-3,4,6,10b-tetrahydro-1H-pyrazino[2,1-a]isoindol-2-yl]quinoline-8-carbonitrile], the IC50 is less than 3.2 nM.
The figure for `C[C@@H]1CN(c2ccc(C#N)c3ncccc23)C[C@@H]2c3cc(F)c(N4C[C@H](N)[C@@](C)(O)C4)cc3CN12` [Example 83, 5-[(4R,10bS)-8-[(3S,4S)-4-amino-3-hydroxy-3-methyl-pyrrolidin-1-yl]-9-fluoro-4-methyl-3,4,6,10b-tetrahydro-1H-pyrazino[2,1-a]isoindol-2-yl]quinoline-8-carbonitrile] is 1 nM.
To `C[C@@H]1CN(c2ccc(C#N)c3ncccc23)C[C@@H]2c3ccc(C(=O)N4CCC(C)(N)CC4)cc3CN12` [Example 88, 5-[(4R,10bS)-8-(4-amino-4-methyl-piperidine-1-carbonyl)-4-methyl-3,4,6,10b-tetrahydro-1H-pyrazino[2,1-a]isoindol-2-yl]quinoline-8-carbonitrile] belongs 0.7 nM; to `CO[C@@H]1CNC[C@@H]1Nc1ccc2c(c1)CN1[C@H](C)CN(c3ccc(C#N)c4ncccc34)C[C@H]21` [Example 60, 5-[(4R,10bS)-8-[[(3S,4R)-4-methoxypyrrolidin-3-yl]amino]-4-methyl-3,4,6,10b-tetrahydro-1H-pyrazino[2,1-a]isoindol-2-yl]quinoline-8-carbonitrile], less than 3.2 nM.
For the compound `CO[C@H]1CNC[C@@H]1N(C)c1ccc2c(c1)CN1[C@H](C)CN(c3ccc(C#N)c4ncccc34)C[C@H]21` [Example 64, 5-[(4R,10bS)-8-[[(3S,4S)-4-methoxypyrrolidin-3-yl]-methyl-amino]-4-methyl-3,4,6,10b-tetrahydro-1H-pyrazino[2,1-a]isoindol-2-yl]quinoline-8-carbonitrile], the IC50 was less than 3.2 nM.
As to `C[C@@H]1CN(c2ccc(C#N)c3ncccc23)C[C@@H]2c3ccc(NCC4(F)CNC4)cc3CN12` [Example 69, 5-[(4R,10bS)-8-[(3-fluoroazetidin-3-yl)methylamino]-4-methyl-3,4,6,10b-tetrahydro-1H-pyrazino[2,1-a]isoindol-2-yl]quinoline-8-carbonitrile], the IC50 was less than 3.2 nM.
Consider `C[C@@H]1CN(c2ccc(C#N)c3ncccc23)C[C@@H]2c3ccc(NC[C@@H]4C[C@H](F)CN4)cc3CN12` [Example 70, 5-[(4R,10bS)-8-[[(2S,4S)-4-fluoropyrrolidin-2-yl]methylamino]-4-methyl-3,4,6,10b-tetrahydro-1H-pyrazino[2,1-a]isoindol-2-yl]quinoline-8-carbonitrile], for which the IC50 turned out to be 0.5 nM.
With `C[C@@H]1CN(c2ccc(C#N)c3ncccc23)C[C@@H]2c3ccc(NCCN4CC[C@H](O)C4)cc3CN12` [Example 68, 5-[(4R,10bS)-8-[2-[(3S)-3-hydroxypyrrolidin-1-yl]ethylamino]-4-methyl-3,4,6,10b-tetrahydro-1H-pyrazino[2,1-a]isoindol-2-yl]quinoline-8-carbonitrile], the IC50 was less than 3.2 nM.
On to `CO[C@H]1CNC[C@H]1Nc1ccc2c(c1)CN1[C@H](C)CN(c3ccc(C#N)c4ncccc34)C[C@H]21` [Example 61, 5-[(4R,10bS)-8-[[(3R,4S)-4-methoxypyrrolidin-3-yl]amino]-4-methyl-3,4,6,10b-tetrahydro-1H-pyrazino[2,1-a]isoindol-2-yl]quinoline-8-carbonitrile], for which the IC50 is less than 3.2 nM.
The figure for `C[C@@H]1CN(c2ccc(C#N)c3ncccc23)C[C@@H]2c3ccc(NC[C@@H]4CNCCO4)cc3CN12` [Example 58, 5-[(4R,10bS)-4-methyl-8-[[(2S)-morpholin-2-yl]methylamino]-3,4,6,10b-tetrahydro-1H-pyrazino[2,1-a]isoindol-2-yl]quinoline-8-carbonitrile] is less than 3.2 nM; for `CO[C@H]1CNCC[C@H]1Nc1ccc2c(c1)CN1[C@H](C)CN(c3ccc(C#N)c4ncccc34)C[C@H]21` [Example 66, 5-[(4R,10bS)-8-[[(3S,4R)-3-methoxy-4-piperidyl]amino]-4-methyl-3,4,6,10b-tetrahydro-1H-pyrazino[2,1-a]isoindol-2-yl]quinoline-8-carbonitrile] it is less than 3.2 nM; for `N#Cc1ccc(N2CCN3Cc4cc(N5CCNCC5)ccc4C3C2)c2cccnc12` (stereo not shown) [Example 3, 5-(8-piperazin-1-yl-3,4,6,10b-tetrahydro-1H-pyrazino[2,1-a]isoindol-2-yl)quinoline-8-carbonitrile] it is less than 3.2 nM.
Take `C[C@@H]1CN(c2ccc(C(F)(F)F)c3nccnc23)C[C@@H]2c3ccc(N[C@H]4CNC[C@H]4F)cc3CN12` [Example 77, (4R,10bS)—N-[(3S,4R)-4-fluoropyrrolidin-3-yl]-4-methyl-2-[8-(trifluoromethyl)quinoxalin-5-yl]-3,4,6,10b-tetrahydro-1H-pyrazino[2,1-a]isoindol-8-amine]: the IC50 is less than 3.2 nM.
For the compound `C[C@@H]1CN(c2ccc(C#N)c3ncccc23)C[C@@H]2c3ccc(N[C@@H]4CCCNC4)cc3CN12` [Example 65, 5-[(4R,10bS)-4-methyl-8-[[(3R)-3-piperidyl]amino]-3,4,6,10b-tetrahydro-1H-pyrazino[2,1-a]isoindol-2-yl]quinoline-8-carbonitrile], the IC50 was less than 3.2 nM.
The figure for `C[C@@H]1CN(c2ccc(C#N)c3ncccc23)C[C@@H]2c3ccc(N[C@@H]4CNCCOC4)cc3CN12` [Example 56A, 5-[(4R,10bS)-4-methyl-8-[[(6R)-1,4-oxazepan-6-yl]amino]-3,4,6,10b-tetrahydro-1H-pyrazino[2,1-a]isoindol-2-yl]quinoline-8-carbonitrile] is less than 3.2 nM; for `C[C@@H]1CN(c2ccc(C#N)c3ncccc23)C[C@@H]2c3ccc(N4CCNCC4)cc3CN12` [Example 1, 5-[(4R,10bS)-4-methyl-8-piperazin-1-yl-3,4,6,10b-tetrahydro-1H-pyrazino[2,1-a]isoindol-2-yl]quinoline-8-carbonitrile] it is less than 3.2 nM.
With `C[C@@H]1CN(c2ccc(C#N)c3ncccc23)C[C@@H]2c3cc(F)c(N4CC5(CNC5)C4)cc3CN12` [Example 84, 5-[(4R,10bS)-8-(2,6-diazaspiro[3.3]heptan-2-yl)-9-fluoro-4-methyl-3,4,6,10b-tetrahydro-1H-pyrazino[2,1-a]isoindol-2-yl]quinoline-8-carbonitrile], the IC50 was 1.3 nM.
To `C[C@@H]1CN(c2ccc(C#N)c3ncccc23)C[C@@H]2c3ccc(N[C@H]4CNCCOC4)cc3CN12` [Example 56B, 5-[(4R,10bS)-4-methyl-8-[[(6S)-1,4-oxazepan-6-yl]amino]-3,4,6,10b-tetrahydro-1H-pyrazino[2,1-a]isoindol-2-yl]quinoline-8-carbonitrile] belongs less than 3.2 nM.
To `CO[C@@H]1CNC[C@H]1Nc1cc2c(cc1C)[C@H]1CN(c3ccc(C#N)c4ncccc34)C[C@@H](C)N1C2` [Example 63, 5-[(4R,10bS)-8-[[(3R,4R)-4-methoxypyrrolidin-3-yl]amino]-4,9-dimethyl-3,4,6,10b-tetrahydro-1H-pyrazino[2,1-a]isoindol-2-yl]quinoline-8-carbonitrile] belongs 6.2 nM; to `[2H]c1ccc2c(N3C[C@@H](C)N4Cc5cc(N6CC7(CNCCO7)C6)ccc5[C@H]4C3)ccc(C#N)c2n1` [Example 90, 5-[(4R,10bS)-4-methyl-8-(5-oxa-2,8-diazaspiro[3.5]nonan-2-yl)-3,4,6,10b-tetrahydro-1H-pyrazino[2,1-a]isoindol-2-yl]-2-deuterio-quinoline-8-carbonitrile], less than 0.3 nM.
For `C[C@@H]1CN(c2ccc(Cl)c3ncccc23)C[C@@H]2c3ccc(N[C@H]4CNC[C@H]4F)cc3CN12` [Example 79, (4R,10b)-2-(8-chloro-5-quinolyl)-N-[(3S,4R)-4-fluoropyrrolidin-3-yl]-4-methyl-3,4,6,10b-tetrahydro-1H-pyrazino[2,1-a]isoindol-8-amine], the IC50 was 2.8 nM.
Turning to `Cc1ccc(N2C[C@@H](C)N3Cc4cc(N[C@H]5CNC[C@H]5F)ccc4[C@H]3C2)c2nccnc12` [Example 76, (4R,10bS)—N-[(3S,4R)-4-fluoropyrrolidin-3-yl]-4-methyl-2-(8-methylquinoxalin-5-yl)-3,4,6,10b-tetrahydro-1H-pyrazino[2,1-a]isoindol-8-amine], the IC50 was 12.7 nM.
